Assay results taken from PubChem BioAssay AID1963984 (Molecular Pharmacology Branch, DTP, NCI, 2024).

System: 233499-124-R-J3-PDC spheroids with HUVEC/MSC, viability
Experiment: Anticancer human tumor 233499-124-R-J3-PDC patient-derived colon adenocarcinoma cell line growth inhibition [PI3K]
Conditions: for IC50: curve of first compound; for viability, T/C: stronger effect = lower value; active means viability on the fitted dose curve at most 10% of control; inactive means the rest
Description: Combinatorial screen of targeted agents with the PI3K inhibitors inavolisib, alpelisib, duvelisib, and copanlisib in multi-cell type tumor spheroids
A high-throughput screen of multi-cell type tumor spheroids was designed to identify active combinations of targeted small molecules and PI3K pathway inhibitors. Complex spheroids include a stromal component modeled by human endothelial cells (HUVEC) and fibroblasts modeled by human mesenchymal stem cells (MSCs). The concentration ranges selected for each drug and investigational agent were based upon clinically achievable concentrations if the clinical Cmax of the agent was known.
Compounds. The drugs and investigational agents: inavolisib (NSC800729), alpelisib (NSC765974), duvelisib (NSC772469), copanlisib (NSC816437), ipatasertib (NSC767898), afuresertib (NSC778305), talazoparib (NSC767125), sapanisertib (NSC764658), selumetinib (NSC741078), tovorafenib (DAY101, NSC766906), vemurafenib (NSC761431), ravoxertinib (NSC781343), sotorasib (NSC818433), MRTX1133 (NSC 836407), abemaciclib (NSC 768073), palbociclib (NSC758247), venetoclax (NSC 766270), SY5609 (NSC837396), enzalutamide (NSC755605), and darolutamide (NSC825331), were obtained from the National Cancer Institute (NCI) Developmental Therapeutics Program Chemical Repository. The FDA-approved anticancer drug set is available from the NCI Developmental Therapeutics Program. […] The stock solutions were prepared in dimethyl sulfoxide (DMSO, Sigma-Aldrich, St. Louis, MO, cat. D2650) at 800-fold the tested concentration and stored at -70 degrees C prior to their use. All drugs and investigational agents were tested over a range starting from a high concentration at or near the clinical Cmax and decreasing in half-log increments. If the clinical Cmax for an agent had not been determined, the highest concentration tested was 10 microM.
Cell Culture. All cells were maintained in an incubator at 37 degrees C and 5% CO2 with 95% humidity. The PDC lines were cultured according to standard operating procedures established by the NCI PDMR (https://pdmr.cancer.gov/sops/default.htm). All PDCs were thawed and cultured in Matrigel-coated flasks prepared with a working solution of 1X Ham's F-12 nutrient mix, without supplementation (Invitrogen, Waltham, MA, cat. 11765054), 100 U/mL penicillin-streptomycin (Invitrogen, cat. 15140122), and 2.5% Matrigel (Corning Inc., Corning, NY, cat. 354248) for the first three passages. The 354836-022-R-J1-PDC, 475296-252-R-J1-PDC, and 997726-040-R-J2-PDC lines were cultured in 6A media, which includes advanced DMEM/F-12 (Thermo Fisher Scientific, cat. 12634028), 10 mM HEPES (Thermo Fisher Scientific, cat. 15630080), 1X GlutaMAX supplement (Thermo Fisher Scientific, cat. 35050061), 0.1 mg/mL primocin (InvivoGen, San Diego, CA, cat. ant-pm-2), 10% defined fetal bovine serum, heat inactivated (HyClone Laboratories Inc., Logan, UT, cat. SH30070.03HI), 50% L-WRN conditioned media (ATCC, cat. CRL-3276), 1.25 mM N-Acetyl-L-cysteine (Sigma-Aldrich, cat. A9165), 10 mM nicotinamide (Sigma-Aldrich, cat. N0636), 1X B-27 supplement (Thermo Fisher Scientific, cat. 17504044), 1X N-2 supplement (Thermo Fisher Scientific, cat. 17502048), and 10 microM Y-27632 dihydrochloride (Tocris Bioscience, Bristol, United Kingdom, cat. 1254). The 624824-186-R-J2-PDC line was cultured in 6C/Colon 1B media, which includes all 6A media components plus 50 ng/mL human EGF recombinant protein (Thermo Fisher Scientific, cat. PHG0311). […]

[1] = second compound 0.00316 µM, first compound 0.0316 µM
[2] = second compound 0.00316 µM, first compound 0.1 µM
[3] = second compound 0.01 µM, first compound 0.0316 µM
[4] = second compound 0.01 µM, first compound 0.1 µM
[5] = second compound 0.0316 µM, first compound 0.0316 µM
[6] = second compound 0.0316 µM, first compound 0.1 µM
[7] = second compound 0.1 µM, first compound 0.0316 µM
[8] = second compound 0.1 µM, first compound 0.1 µM
[9] = second compound 0.316 µM, first compound 0.0316 µM
[10] = second compound 0.316 µM, first compound 0.1 µM
[11] = second compound 1 µM, first compound 0.0316 µM
[12] = second compound 1 µM, first compound 0.1 µM
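Further: spheroids exposed to agents for seven days before readout.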
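Wherever viability, T/C is given: percent viability relative to DMSO vehicle control taken as 100%.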

CC(C)n1nc(-c2ccc3oc(N)nc3c2)c2c(N)ncnc21 + CC(Nc1ccc2c(c1)OCCn1cc(N3C(=O)OCC3C(F)F)nc1-2)C(N)=O
0.0533 µM: IC50 (second compound 0.1 µM)
> 0.1 µM: IC50 (second compound 0.00316 µM) | IC50 (second compound 0.01 µM) | IC50 (second compound 0.0316 µM)
inactive: viability, T/C (second compound 0.00316 µM, first compound 0.000316 µM) 73.5% | viability, T/C (second compound 0.00316 µM, first compound 0.001 µM) 90.1% | viability, T/C (second compound 0.00316 µM, first compound 0.00316 µM) 88% | viability, T/C (second compound 0.00316 µM, first compound 0.01 µM) 95.7% | viability, T/C [1] 81% | viability, T/C [2] 50.2% | viability, T/C (second compound 0.01 µM, first compound 0.000316 µM) 97.8% | viability, T/C (second compound 0.01 µM, first compound 0.001 µM) 92.7% | viability, T/C (second compound 0.01 µM, first compound 0.00316 µM) 105% | viability, T/C (second compound 0.01 µM, first compound 0.01 µM) 89.4% | viability, T/C [3] 78.3% | viability, T/C [4] 57.5% | viability, T/C (second compound 0.0316 µM, first compound 0.000316 µM) 103% | viability, T/C (second compound 0.0316 µM, first compound 0.001 µM) 83% | viability, T/C (second compound 0.0316 µM, first compound 0.00316 µM) 85.9% | viability, T/C (second compound 0.0316 µM, first compound 0.01 µM) 70.3% | viability, T/C [5] 91% | viability, T/C [6] 60.8% | viability, T/C (second compound 0.1 µM, first compound 0.000316 µM) 84% | viability, T/C (second compound 0.1 µM, first compound 0.001 µM) 61.3% | viability, T/C (second compound 0.1 µM, first compound 0.00316 µM) 66% | viability, T/C (second compound 0.1 µM, first compound 0.01 µM) 77% | viability, T/C [7] 66.6% | viability, T/C [8] 29.1% | viability, T/C (second compound 0.316 µM, first compound 0.000316 µM) 82.7% | viability, T/C (second compound 0.316 µM, first compound 0.001 µM) 49.3% | viability, T/C (second compound 0.316 µM, first compound 0.00316 µM) 73.5% | viability, T/C (second compound 0.316 µM, first compound 0.01 µM) 46.6% | viability, T/C [9] 52.8% | viability, T/C [10] 24.2% | viability, T/C (second compound 1 µM, first compound 0.000316 µM) 49.8% | viability, T/C (second compound 1 µM, first compound 0.001 µM) 48.4% | viability, T/C (second compound 1 µM, first compound 0.00316 µM) 59.2% | viability, T/C (second compound 1 µM, first compound 0.01 µM) 41.2% | viability, T/C [11] 26.3% | viability, T/C [12] 12.3%
0.00369 µM: IC50 (second compound 1 µM)
0.0151 µM: IC50 (second compound 0.316 µM)

CCCS(=O)(=O)Nc1ccc(F)c(C(=O)c2c[nH]c3ncc(-c4ccc(Cl)cc4)cc23)c1F + CC(Nc1ccc2c(c1)OCCn1cc(N3C(=O)OCC3C(F)F)nc1-2)C(N)=O
3.38 µM: IC50 (second compound 0.316 µM)
1.79 µM: IC50 (second compound 1 µM)
5.02 µM: IC50 (second compound 0.1 µM)
5.62 µM: IC50 (second compound 0.00316 µM)
active: viability, T/C (second compound 0.00316 µM, first compound 10 µM) 2.87% | viability, T/C (second compound 0.01 µM, first compound 10 µM) 2.03% | viability, T/C (second compound 0.0316 µM, first compound 10 µM) 1.54% | viability, T/C (second compound 0.1 µM, first compound 10 µM) 0.93% | viability, T/C (second compound 0.316 µM, first compound 10 µM) 4.16% | viability, T/C (second compound 1 µM, first compound 10 µM) 2.26%
inactive: viability, T/C [1] 80% | viability, T/C [2] 97.9% | viability, T/C (second compound 0.00316 µM, first compound 0.316 µM) 98.6% | viability, T/C (second compound 0.00316 µM, first compound 1 µM) 105% | viability, T/C (second compound 0.00316 µM, first compound 3.16 µM) 104% | viability, T/C [3] 90.2% | viability, T/C [4] 94.5% | viability, T/C (second compound 0.01 µM, first compound 0.316 µM) 97.1% | viability, T/C (second compound 0.01 µM, first compound 1 µM) 98.2% | viability, T/C (second compound 0.01 µM, first compound 3.16 µM) 84.9% | viability, T/C [5] 77.3% | viability, T/C [6] 90.3% | viability, T/C (second compound 0.0316 µM, first compound 0.316 µM) 85.8% | viability, T/C (second compound 0.0316 µM, first compound 1 µM) 101% | viability, T/C (second compound 0.0316 µM, first compound 3.16 µM) 75.8% | viability, T/C [7] 84.8% | viability, T/C [8] 83.9% | viability, T/C (second compound 0.1 µM, first compound 0.316 µM) 88.5% | viability, T/C (second compound 0.1 µM, first compound 1 µM) 88.3% | viability, T/C (second compound 0.1 µM, first compound 3.16 µM) 82.8% | viability, T/C [9] 86.6% | viability, T/C [10] 66.6% | viability, T/C (second compound 0.316 µM, first compound 0.316 µM) 66.9% | viability, T/C (second compound 0.316 µM, first compound 1 µM) 69.2% | viability, T/C (second compound 0.316 µM, first compound 3.16 µM) 54.5% | viability, T/C [11] 73% | viability, T/C [12] 45.4% | viability, T/C (second compound 1 µM, first compound 0.316 µM) 54.9% | viability, T/C (second compound 1 µM, first compound 1 µM) 61% | viability, T/C (second compound 1 µM, first compound 3.16 µM) 41.8%
5.14 µM: IC50 (second compound 0.01 µM)
4.72 µM: IC50 (second compound 0.0316 µM)
